Our source for the Kd and IC50 values is patent US20250368666A1, “INDAZOLE COMPOUNDS” (TYRA BIOSCIENCES, INC., priority 2022, published 2025).

One assay addresses T1, FGFR1 (Homo sapiens, UniProt P11362).
T1 construct: made in house; host or cells: E. coli (BL21-derived), T7 phage
Briefly: Kinase binding assay (kinase-tagged T7 phage, affinity beads, qPCR), Kd. To be noted: read-out: FGFR1 (Kd nM). In outline: (§1)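 Competition binding of compounds against kinase-tagged T7 phage captured on immobilised biotinylated ligand beads; bead-bound kinase quantified by qPCR of eluates. 11-point 3-fold dilution, 0.9% DMSO final; Kd from Hill fit with slope fixed at −1.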
(Quantitative PCR measures a nucleic acid by following its amplification.)

For the next assay, the target named is T2, FGFR2 (Homo sapiens, UniProt P21802).
T2 construct: made in house; host or cells: E. coli (BL21-derived), T7 phage
T2 sequence (P21802 22-821): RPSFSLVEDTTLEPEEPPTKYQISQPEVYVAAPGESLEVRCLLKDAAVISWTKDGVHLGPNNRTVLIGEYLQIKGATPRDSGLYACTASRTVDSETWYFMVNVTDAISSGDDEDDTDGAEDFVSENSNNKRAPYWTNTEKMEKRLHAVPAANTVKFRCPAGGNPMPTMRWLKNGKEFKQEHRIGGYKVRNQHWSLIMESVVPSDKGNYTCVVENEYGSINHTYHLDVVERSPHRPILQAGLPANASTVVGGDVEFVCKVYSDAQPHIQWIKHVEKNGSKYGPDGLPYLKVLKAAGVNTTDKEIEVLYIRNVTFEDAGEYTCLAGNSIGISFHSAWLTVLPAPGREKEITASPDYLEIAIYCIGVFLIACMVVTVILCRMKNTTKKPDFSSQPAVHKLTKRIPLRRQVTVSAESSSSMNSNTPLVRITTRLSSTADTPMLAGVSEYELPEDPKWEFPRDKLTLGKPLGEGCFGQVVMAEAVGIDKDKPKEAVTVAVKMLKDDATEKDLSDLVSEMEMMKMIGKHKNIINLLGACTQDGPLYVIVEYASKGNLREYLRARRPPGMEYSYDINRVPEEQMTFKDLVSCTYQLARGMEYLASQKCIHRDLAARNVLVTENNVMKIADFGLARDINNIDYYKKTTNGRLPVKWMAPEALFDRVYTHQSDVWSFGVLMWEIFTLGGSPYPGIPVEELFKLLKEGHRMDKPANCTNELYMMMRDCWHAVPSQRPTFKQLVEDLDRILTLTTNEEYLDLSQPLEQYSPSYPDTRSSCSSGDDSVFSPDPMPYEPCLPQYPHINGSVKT
The assay is described as above. To be noted: read-out: FGFR2 (Kd nM). In a few lines:
as §1

Another assay addresses T3, FGFR3 (Homo sapiens, UniProt P22607).
T3 construct: made in house; host or cells: E. coli (BL21-derived), T7 phage
The description is as above. To be noted: read-out: FGFR3 (Kd nM). In outline: as §1

For the next assay, the target named is T4, FGFR3 (V555M) (Homo sapiens, UniProt P22607, V555M).
T4 construct: made in house; host or cells: E. coli (BL21-derived), T7 phage
T4 sequence (P22607 23-806 V555M): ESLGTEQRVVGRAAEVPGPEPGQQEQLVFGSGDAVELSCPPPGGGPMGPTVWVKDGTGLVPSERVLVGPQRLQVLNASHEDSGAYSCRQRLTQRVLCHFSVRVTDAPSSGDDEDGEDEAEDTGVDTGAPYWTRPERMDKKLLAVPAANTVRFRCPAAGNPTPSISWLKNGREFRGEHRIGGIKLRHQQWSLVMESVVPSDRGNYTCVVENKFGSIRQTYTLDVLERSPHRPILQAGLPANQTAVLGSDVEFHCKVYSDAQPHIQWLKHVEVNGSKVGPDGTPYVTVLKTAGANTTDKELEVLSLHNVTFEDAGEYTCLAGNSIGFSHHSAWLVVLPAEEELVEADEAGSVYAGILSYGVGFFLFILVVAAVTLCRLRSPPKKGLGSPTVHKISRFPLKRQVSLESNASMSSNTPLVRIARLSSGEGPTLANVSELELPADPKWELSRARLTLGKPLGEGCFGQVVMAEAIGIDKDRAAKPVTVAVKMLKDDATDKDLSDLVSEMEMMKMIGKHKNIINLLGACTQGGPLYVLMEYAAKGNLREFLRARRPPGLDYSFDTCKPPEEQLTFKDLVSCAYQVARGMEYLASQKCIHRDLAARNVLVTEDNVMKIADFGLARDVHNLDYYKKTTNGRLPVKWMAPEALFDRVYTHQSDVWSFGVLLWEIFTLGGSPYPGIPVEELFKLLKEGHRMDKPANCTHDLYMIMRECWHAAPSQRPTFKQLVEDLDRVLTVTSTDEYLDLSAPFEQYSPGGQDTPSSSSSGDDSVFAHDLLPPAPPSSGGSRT
The description is as above. The settings on record: V555M mutant; read-out: FGFR3 (V555M) (Kd nM). In outline: as §1

The next assay deals with T5, FGFR4 (Homo sapiens, UniProt P22455).
T5 construct: made in house; host or cells: E. coli (BL21-derived), T7 phage
T5 sequence (P22455 22-802): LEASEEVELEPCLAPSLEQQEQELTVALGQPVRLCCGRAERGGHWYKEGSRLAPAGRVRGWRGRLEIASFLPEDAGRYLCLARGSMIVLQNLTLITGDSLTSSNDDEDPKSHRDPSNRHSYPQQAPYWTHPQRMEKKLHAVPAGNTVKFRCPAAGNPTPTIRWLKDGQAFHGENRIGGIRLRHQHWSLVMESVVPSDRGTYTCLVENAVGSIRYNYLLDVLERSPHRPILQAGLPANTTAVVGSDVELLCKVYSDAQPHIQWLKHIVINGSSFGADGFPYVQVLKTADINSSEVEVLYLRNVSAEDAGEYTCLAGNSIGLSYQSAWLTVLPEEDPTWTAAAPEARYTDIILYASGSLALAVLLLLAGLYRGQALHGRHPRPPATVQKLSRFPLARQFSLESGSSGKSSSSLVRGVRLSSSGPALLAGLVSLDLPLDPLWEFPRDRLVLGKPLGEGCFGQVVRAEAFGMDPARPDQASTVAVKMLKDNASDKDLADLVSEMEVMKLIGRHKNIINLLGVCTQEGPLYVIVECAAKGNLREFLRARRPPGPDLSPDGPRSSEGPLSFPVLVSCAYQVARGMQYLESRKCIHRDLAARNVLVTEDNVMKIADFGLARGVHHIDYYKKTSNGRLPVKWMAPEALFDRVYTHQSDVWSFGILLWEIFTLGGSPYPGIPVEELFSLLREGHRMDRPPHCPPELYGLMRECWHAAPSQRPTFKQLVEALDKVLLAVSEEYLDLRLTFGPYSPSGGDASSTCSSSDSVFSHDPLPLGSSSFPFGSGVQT
The assay is described as above. The settings on record: read-out: FGFR4 (Kd nM). In a few lines:
as §1

Assay [1] has as its system KATO-III cell line (FGFR2 amplification). Briefly: Cancer cell line cell viability assay (Cell Titer-Glo), 72 hr. In kind it is cell-based. To be noted: Homo sapiens. In outline:
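Intracellular ATP was measured by Cell Titer-Glo 2.0 luminescence after cells were incubated with compound dilutions (top 3 μM, 4-fold, 9 doses). Values were expressed relative to DMSO-treated cells and IC50 was calculated from a variable-slope dose-response curve.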

The subject of assay [2] is KG-1 cell line (FGFR 1-fusion). Described as above. In kind it is cell-based. To be noted: Homo sapiens. In outline: (§2)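 Cells seeded at 5,000-20,000/well, incubated overnight, then treated with a 9-dose, 4-fold dilution series from 3 μM in triplicate at 37° C, 5% CO2. Viability read by Cell Titer-Glo 2.0 luminescence as percent of DMSO control; IC50 from 4-parameter variable-slope sigmoidal fit.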

The test system of assay [3] is RT112/84 cell line (FGFR3-fusion). Described as above. In kind it is cell-based. The settings on record: Homo sapiens. In a few lines: as §2
The mark [4] stands for this setting: KG-1, KG-1 cell line (FGFR1-fusion).
[5] abbreviates: RT112/84, RT112/84 cell line (FGFR3-fusion).

T1 sequence (P11362 22-822): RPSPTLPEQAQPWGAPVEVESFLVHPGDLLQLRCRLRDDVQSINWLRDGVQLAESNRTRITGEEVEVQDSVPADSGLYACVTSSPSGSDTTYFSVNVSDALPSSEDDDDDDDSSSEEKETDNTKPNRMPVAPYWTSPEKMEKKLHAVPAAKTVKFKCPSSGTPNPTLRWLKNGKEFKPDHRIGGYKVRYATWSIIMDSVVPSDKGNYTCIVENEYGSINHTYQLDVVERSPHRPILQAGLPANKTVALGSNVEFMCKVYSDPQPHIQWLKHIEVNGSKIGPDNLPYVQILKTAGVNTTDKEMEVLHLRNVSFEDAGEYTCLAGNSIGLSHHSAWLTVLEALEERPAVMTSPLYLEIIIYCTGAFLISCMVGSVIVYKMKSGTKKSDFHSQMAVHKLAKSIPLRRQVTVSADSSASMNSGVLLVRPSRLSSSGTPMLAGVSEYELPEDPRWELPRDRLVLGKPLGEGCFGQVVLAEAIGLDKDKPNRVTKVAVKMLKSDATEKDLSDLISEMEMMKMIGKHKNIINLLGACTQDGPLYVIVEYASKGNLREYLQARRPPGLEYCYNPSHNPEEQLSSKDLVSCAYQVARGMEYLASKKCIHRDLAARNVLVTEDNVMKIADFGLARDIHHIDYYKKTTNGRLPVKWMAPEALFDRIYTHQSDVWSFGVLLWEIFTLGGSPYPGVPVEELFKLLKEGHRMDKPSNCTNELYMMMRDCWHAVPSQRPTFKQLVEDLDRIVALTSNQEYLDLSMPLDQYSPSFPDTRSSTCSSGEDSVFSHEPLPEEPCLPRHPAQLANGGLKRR
T3 sequence (P22607 23-806): as the sequence (P22607 23-806 V555M) above, with M533V counted along it

As a reminder, the Kd is the concentration at which binding is half-saturated. What is called IC50 is the midpoint of a concentration-inhibition curve. Consider `CNC1(C)CN(c2ncc(-c3n[nH]c4ccc(O[C@H](C)c5c(Cl)cncc5Cl)cc34)cc2F)C1` [Example 171, (R)-1-(5-(5-(1-(3,5-dichloropyridin-4-yl)ethoxy)-1H-indazol-3-yl)-3-fluoropyridin-2-yl)-N,3-dimethylazetidin-3-amine], for which the Kd at FGFR1, on FGFR2, on FGFR3, on FGFR3 (V555M) and on FGFR4 was 1 to 50 nM throughout. The half-maximal inhibitory concentration (IC50) in assay [1] (KATO III), in assay [2] (setting [4]) and in assay [3] (setting [5]) was 0.1 to 50 nM each time.
In the case of `CNC1(C)CN(c2ccc(-c3n[nH]c4cc(F)c(O[C@H](C)c5c(Cl)cncc5Cl)cc34)cn2)C1` [Example 59, 1-[5-[5-[(1R)-1-(3,5-dichloro-4-pyridyl)ethoxy]-6-fluoro-1H-indazol-3-yl]-2-pyridyl]-N,3-dimethyl-azetidin-3-amine], the Kd at FGFR1, on FGFR2, on FGFR3, at FGFR3 (V555M) and at FGFR4 was 1 to 50 nM in each case. Moreover, the IC50 in assay [1] (KATO III) was in the range of 200 to 1000 nM; in assay [2] (setting [4]), 200 to 1000 nM; in assay [3] (setting [5]) it was 0.1 to 50 nM.
In the case of `COP(=O)(CC1(C)CN(c2ccc(-c3n[nH]c4ccc(O[C@H](C)c5c(Cl)cncc5Cl)cc34)cn2)C1)OC` [Example 214, (R)-dimethyl ((1-(5-(5-(1-(3,5-dichloropyridin-4-yl)ethoxy)-1H-indazol-3-yl)pyridin-2-yl)-3-methylazetidin-3-yl)methyl)phosphonate], the Kd on FGFR1, at FGFR2, at FGFR3, on FGFR3 (V555M) and at FGFR4 was 1 to 50 nM each time. The IC50 in assay [1] fell in the range of 0.1 to 50 nM; in assay [2] (KG-1 cell line (FGFR1-fusion)) it was 50 to 200 nM; in assay [3] (RT112/84 cell line (FGFR3-fusion)) it was 0.1 to 50 nM.
Consider `CCN(CC)C1(C)CN(c2ccc(-c3n[nH]c4ccc(O[C@H](C)c5c(Cl)cnc(C)c5Cl)cc34)cn2)C1` [Example 72, 1-[5-[5-[(1R)-1-(3,5-dichloro-2-methyl-4-pyridyl)ethoxy]-1H-indazol-3-yl]-2-pyridyl]-N,N-diethyl-3-methyl-azetidin-3-amine], for which the Kd on FGFR1, on FGFR2, at FGFR3, on FGFR3 (V555M) and on FGFR4 was 1 to 50 nM in each case. Besides, the IC50 lay within 50 to 200 nM in assay [1] (KATO III), 200 to 1000 nM in assay [2] (setting [4]) and 0.1 to 50 nM in assay [3] (setting [5]).
Regarding `COC1(C)CN(C2(C)CN(c3ncc(-c4n[nH]c5ccc(O[C@H](C)c6c(Cl)cncc6Cl)cc45)cc3F)C2)C1` [Example 97, (R)-5-(1-(3,5-dichloropyridin-4-yl)ethoxy)-3-(5-fluoro-6-(3-methoxy-3,3′-dimethyl-[1,3′-biazetidin]-1′-yl)pyridin-3-yl)-1H-indazole], the Kd at FGFR1, at FGFR2, at FGFR3, on FGFR3 (V555M) and on FGFR4 was 1 to 50 nM throughout. In addition, the IC50 in assay [1] (KATO III) was 0.1 to 50 nM; in assay [2] (setting [4]), 50 to 200 nM; in assay [3] (setting [5]), 0.1 to 50 nM.
Consider `COc1cc2[nH]nc(-c3cnc(N4CC(C)(NC[C@@H](C)O)C4)c(F)c3)c2cc1O[C@H](C)c1c(Cl)cncc1Cl` [Example 161, (R)-1-((1-(5-(5-((R)-1-(3,5-dichloropyridin-4-yl)ethoxy)-6-methoxy-1H-indazol-3-yl)-3-fluoropyridin-2-yl)-3-methylazetidin-3-yl)amino)propan-2-ol], for which the equilibrium dissociation constant (Kd) at FGFR1, at FGFR2, at FGFR3, at FGFR3 (V555M) and on FGFR4 was 1 to 50 nM each time. The IC50 in assay [1] (KATO III), in assay [2] (setting [4]) and in assay [3] (setting [5]) was 0.1 to 50 nM in each case.
Consider `C[C@H](O)CNC1(C)CN(c2ccc(-c3n[nH]c4ccc(O[C@H](C)c5c(Cl)cncc5Cl)cc34)cn2)C1` [Example 90, (S)-1-((1-(5-(5-((R)-1-(3,5-dichloropyridin-4-yl)ethoxy)-1H-indazol-3-yl)pyridin-2-yl)-3-methylazetidin-3-yl)amino)propan-2-ol], for which the Kd on FGFR1, at FGFR2, on FGFR3, at FGFR3 (V555M) and at FGFR4 was 1 to 50 nM in each case. Also, the IC50 in assay [1] (KATO III), in assay [2] (setting [4]) and in assay [3] (setting [5]) was 0.1 to 50 nM throughout.
For `COc1cc2[nH]nc(-c3ccc(N4CC(C)(N[C@@H]5CCOC5)C4)nc3)c2cc1O[C@H](C)c1c(Cl)cncc1Cl` [Example 73, 1-(5-(5-((R)-1-(3,5-dichloropyridin-4-yl)ethoxy)-6-methoxy-1H-indazol-3-yl)pyridin-2-yl)-3-methyl-N-((R)-tetrahydrofuran-3-yl)azetidin-3-amine], the Kd on FGFR1, on FGFR2, at FGFR3, on FGFR3 (V555M) and on FGFR4 was 1 to 50 nM each time. In addition, the half-maximal inhibitory concentration (IC50) in assay [1] (KATO III), in assay [2] (setting [4]) and in assay [3] (setting [5]) was 0.1 to 50 nM throughout.
As to `Cc1ncc(Cl)c([C@@H](C)Oc2ccc3[nH]nc(-c4ccc(N5CC(C)(NC6CCC6)C5)nc4)c3c2)c1Cl` [Example 71, N-cyclobutyl-1-[5-[5-[(1R)-1-(3,5-dichloro-2-methyl-4-pyridyl)ethoxy]-1H-indazol-3-yl]-2-pyridyl]-3-methyl-azetidin-3-amine], the Kd on FGFR1, at FGFR2, on FGFR3, at FGFR3 (V555M) and on FGFR4 was 1 to 50 nM in each case. In addition, the results for the IC50 in assay [1] (KATO III), in assay [2] (setting [4]) and in assay [3] (setting [5]) were 50 to 200 nM, 200 to 1000 nM and 0.1 to 50 nM, respectively.
With `C[C@@H](O)CNC1(C)CN(c2ccc(-c3n[nH]c4ccc(O[C@H](C)c5c(Cl)cncc5Cl)cc34)cn2)C1` [Example 91, (R)-1-((1-(5-(5-((R)-1-(3,5-dichloropyridin-4-yl)ethoxy)-1H-indazol-3-yl)pyridin-2-yl)-3-methylazetidin-3-yl)amino)propan-2-ol], the Kd on FGFR1, on FGFR2, on FGFR3, on FGFR3 (V555M) and on FGFR4 was 1 to 50 nM throughout. In addition, the IC50 in assay [1] (KATO III), in assay [2] (setting [4]) and in assay [3] (setting [5]) was 0.1 to 50 nM in each case.
Regarding `C[C@@H](Oc1ccc2[nH]nc(-c3cnc(N4CC(C)(O)C4)c(F)c3)c2c1)c1c(Cl)cncc1Cl` [Example 154, 1-[5-[5-[(1R)-1-(3,5-dichloro-4-pyridyl)ethoxy]-1H-indazol-3-yl]-3-fluoro-2-pyridyl]-3-methyl-azetidin-3-ol], the Kd at FGFR1, at FGFR2, at FGFR3, on FGFR3 (V555M) and at FGFR4 was 1 to 50 nM throughout. Also, the IC50 in assay [1] (KATO III) was in the range of 50 to 200 nM; in assay [2] (setting [4]), 50 to 200 nM; in assay [3] (setting [5]) it was 0.1 to 50 nM.
